A short description of data set [1]: Metabolic stability in human liver microsomes. Conditions: 1 µM compound; for CLblood, human microsomes: hepatic in vivo blood clearance calculated with well stirred liver model, '(stable)' given beside < 0.01; for Fmax, human microsomes: maximal oral bioavailability calculated with well stirred liver model, 0.5 mg/mL protein, '(stable)' given beside 100.
Protocol: The in vitro metabolic stability of test compounds was determined by incubating them at 1 µM in a suspension liver microsomes in 100 mM phosphate buffer, pH7.4 (NaH2PO4 x H2O + Na2HPO4 x 2H2O) and at a protein concentration of 0.5 mg/mL at 37° C. The microsomes were activated by adding a co-factor mix containing 8 mM Glukose-6-Phosphat, 4 mM MgCl2, 0.5 mM NADP and 1 IU/mL G-6-P-Dehydrogenase in phosphate buffer, pH 7.4. The metabolic assay was started shortly afterwards by adding the test compound to the incubation at a final volume of 1 mL. Organic solvent in the incubations was limited to ≤0.01 % dimethylsulfoxide (DMSO) and ≤1% acetonitril. During incubation, the microsomal suspensions were continuously shaken at 580 rpm, and aliquots were taken at 2, 8, 16, 30, 45 and 60 min, to which equal volumes of cold methanol were immediately added. Samples were frozen at -20° C over night, subsequently centrifuged for 15 min at 3000 rpm and the supernatant was analyzed with an Agilent 1200 HPLC-system with LCMS/MS detection.
The half-life of a test compound was determined from the concentration-time plot. From the half-life the intrinsic clearances were calculated. Together with the additional parameters liver blood flow, specific liver weight and microsomal protein content the hepatic in vivo blood clearance (CL) and the maximal oral bioavailability (Fmax) were calculated using the "well stirred" liver model. The following parameter values were used: Liver blood flow - 1.32 L/h/kg (human), 2.1 L/h/kg (dog); specific liver weight - 21 g/kg (human), 39 g/kg (dog); microsomal protein content - 40 mg/g.
Another data set deals with T1, human IRAK4 (Homo sapiens, UniProt Q9NWZ3).
T1 construct: GST (N); made in house; host or cells: baculovirus-infected Hi5 (BTI-TN-5B1-4) insect cells
T1 sequence (Q9NWZ3 1-460): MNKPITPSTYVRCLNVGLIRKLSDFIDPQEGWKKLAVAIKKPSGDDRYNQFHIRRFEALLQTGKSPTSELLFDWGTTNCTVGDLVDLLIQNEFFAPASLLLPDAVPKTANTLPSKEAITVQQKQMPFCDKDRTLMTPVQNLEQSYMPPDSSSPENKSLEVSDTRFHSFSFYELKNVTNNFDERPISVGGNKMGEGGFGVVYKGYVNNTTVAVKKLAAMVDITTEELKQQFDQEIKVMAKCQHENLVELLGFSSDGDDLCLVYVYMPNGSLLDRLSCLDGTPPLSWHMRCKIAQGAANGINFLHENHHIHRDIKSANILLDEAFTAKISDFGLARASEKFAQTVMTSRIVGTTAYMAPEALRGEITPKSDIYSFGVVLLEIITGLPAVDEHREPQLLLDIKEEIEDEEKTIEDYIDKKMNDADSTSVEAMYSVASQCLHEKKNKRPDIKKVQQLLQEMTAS
In words: Human IRAK4 kinase activity inhibition assay (IRAK4 TR-FRET assay). The class given is biochemical. As to conditions: 1 mM ATP, GST-human IRAK4, average or median values. The gist of the method: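 Signal was the 665/620 nm emission ratio from a europium anti-mouse-IgG, anti-phosphoserine antibody and streptavidin-XL665 complex formed over 1 h at 22°C. It was scaled between no-enzyme (100%) and no-compound (0%) wells. Beforehand, compounds (20 µM down to 0.073 nM, 11 points) sat 15 min with roughly 0.2 nM insect-cell-expressed GST-human IRAK4 before phosphorylation of a biotinylated peptide substrate.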

Turning to `O=S1(=O)C[C@H](Nc2nc(N3CC(N4CCOCC4)C3)c3cnn(-c4cccc(C(F)(F)F)c4)c3n2)[C@@H](O)C1` (relative stereo) [Example I-37, rel-(3R,4R)-4-({4-[3-(morpholin-4-yl)azetidin-1-yl]-1-[3-(trifluoromethyl)phenyl]-1H-pyrazolo[3,4-d]pyrimidin-6-yl}amino)tetrahydrothiophene-3-ol 1,1-dioxide], in data set [1], the “CLblood, human microsomes” value was 0.05 L/h/kg and the “Fmax, human microsomes” value is 97%. Besides, the IC50 – broadly, the concentration at which inhibition is half-maximal – against human IRAK4 is 11.5 nM.

Turning to `C[C@H]1CN(c2nc(N[C@H]3C[C@H](S(C)(=O)=O)C3)nc3c2cnn3-c2cccc(C(F)F)c2)C[C@@H]1O` (relative stereo) [II-17-1, rel-(3R,4S)-1-(1-[3-(difluoromethyl)phenyl]-6-{[trans-3-(methylsulfonyl)cyclobutyl]-amino}-1H-pyrazolo[3,4-d]pyrimidin-4-yl)-4-methylpyrrolidin-3-ol], in data set [1], the “CLblood, human microsomes” value was 0.10 L/h/kg and the “Fmax, human microsomes” value is recorded as 93%. Half-maximal inhibition against human IRAK4 (IC50) was put at 2.64 nM. On the same counts, the results for `C[C@H]1CN(c2nc(N[C@H]3C[C@H](S(C)(=O)=O)C3)nc3c2cnn3-c2cccc(C(F)F)c2)C[C@@H]1O` (single isomer, unassigned) [II-17-2, (3R*,4S*)-1-(1-[3-(difluoromethyl)phenyl]-6-{[trans-3-(methylsulfonyl)cyclobutyl]amino}-1H-pyrazolo[3,4-d]pyrimidin-4-yl)-4-methylpyrrolidin-3-ol] are 0.28 L/h/kg, 79% and 2.1 nM. On the same counts, the results for `CCC1(O)CN(c2nc(N[C@@H]3CNC(=O)C3)nc3c2cnn3-c2cccc(C(F)(F)F)c2)C1` [Example I-3-1, (4S)-4-({4-(3-ethyl-3-hydroxyazetidin-1-yl)-1-[3-(trifluoromethyl)phenyl]-1H-pyrazolo[3,4-d]pyrimidin-6-yl}amino)pyrrolidin-2-one] are 0.46 L/h/kg, 65% and 9.76 nM. In the same order, the values of `CC(C)(O)C1CCN(c2nc(N[C@@H]3CCOC3)nc3c2cnn3-c2cccc(C(F)(F)F)c2)CC1` [Example I-16-2, 2-(1-{6-[(3R)-tetrahydrofuran-3-ylamino]-1-[3-(trifluoromethyl)phenyl]-1H-pyrazolo[3,4-d]pyrimidin-4-yl}piperidin-4-yl)propan-2-ol] are 0.92 L/h/kg, 30% and 16.1 nM. Regarding `O=S1(=O)CC[C@@H](Nc2nc(N3CC(N4CCOCC4)C3)c3cnn(-c4cccc(C(F)(F)F)c4)c3n2)C1` [Example I-22, N-[(3R)-1,1-dioxidotetrahydrothiophen-3-yl]-4-[3-(morpholin-4-yl)azetidin-1-yl]-1-[3-(trifluoromethyl)phenyl]-1H-pyrazolo[3,4-d]pyrimidin-6-amine], in data set [1], the “CLblood, human microsomes” value is reported as 0.34 L/h/kg and the “Fmax, human microsomes” value is reported as 74%. Besides, 99.3 nM corresponded to half-maximal inhibition at human IRAK4 (IC50). Regarding `O=C1C[C@H](Nc2nc(N3CCC(N4CCOCC4)CC3)c3cnn(-c4cccc(C(F)(F)F)c4)c3n2)CN1` [Example I-27, (4S)-4-({4-[4-(morpholin-4-yl)piperidin-1-yl]-1-[3-(trifluoromethyl)phenyl]-1H-pyrazolo[3,4-d]pyrimidin-6-yl}amino)pyrrolidin-2-one], in data set [1], the “CLblood, human microsomes” value was 0.17 L/h/kg and the “Fmax, human microsomes” value is on record as 87%. At human IRAK4, this molecule had an IC50 of 7.01 nM.

Consider `CC(C)(O)C1CCN(c2nc(N[C@H]3CC[C@@H](O)C3)nc3c2cnn3-c2cccc(C(F)(F)F)c2)CC1` [Example I-29, (1R,3S)-3-({4-[4-(2-hydroxypropan-2-yl)piperidin-1-yl]-1-[3-(trifluoromethyl)phenyl]-1H-pyrazolo[3,4-d]pyrimidin-6-yl}amino)cyclopentanol], for which, in data set [1], the “CLblood, human microsomes” value is on record as 0.43 L/h/kg and the “Fmax, human microsomes” value was 68%. Besides, half-maximal inhibition at human IRAK4 (IC50) required 10.8 nM. On the same counts, the results for `CC1(O)CCN(C2CN(c3nc(N[C@@H]4CNC(=O)C4)nc4c3cnn4-c3cccc(C(F)(F)F)c3)C2)CC1` [Example I-30, (4S)-4-({4-[3-(4-hydroxy-4-methylpiperidin-1-yl)azetidin-1-yl]-1-[3-(trifluoromethyl)phenyl]-1H-pyrazolo[3,4-d]pyrimidin-6-yl)amino)pyrrolidin-2-one] are < 0.01 (stable) L/h/kg, 100 (stable) % and 6.15 nM. With `CCS(=O)(=O)N1CC(Nc2nc(N3CC(CC(C)(C)O)C3)c3cnn(-c4cccc(C(F)F)c4)c3n2)C1` [II-28, 1-[1-(1-[3-(difluoromethyl)phenyl]-6-{[1-(ethylsulfonyl)azetidin-3-yl]amino}-1H-pyrazolo[3,4-d]pyrimidin-4-yl)azetidin-3-yl]-2-methylpropan-2-ol], on human IRAK4, the IC50 was determined as 40 nM. Take `C[C@@]1(O)CCN(c2nc(NC3CN(S(C)(=O)=O)C3)nc3c2cnn3-c2cccc(C(F)F)c2)C1` [II-29, (3R)-1-(1-[3-(difluoromethyl)phenyl]-6-{[1-(methylsulfonyl)azetidin-3-yl]amino}-1H-pyrazolo[3,4-d]pyrimidin-4-yl)-3-methylpyrrolidin-3-ol]: the midpoint of inhibition on human IRAK4, the IC50, lay at 67.1 nM. As for `CC(C)(O)C1CCN(c2nc(NC3CN(S(=O)(=O)C4CC4)C3)nc3c2cnn3-c2cccc(C(F)F)c2)CC1` [II-30, 2-[1-(6-{[1-(cyclopropylsulfonyl)azetidin-3-yl]amino}-1-[3-(difluoromethyl)phenyl]-1H-pyrazolo[3,4-d]pyrimidin-4-yl)piperidin-4-yl]propan-2-ol], the midpoint of inhibition against human IRAK4, the IC50, lay at 16.2 nM.

`CCS(=O)(=O)N1CC(Nc2nc(N3CC(N4CCOCC4)C3)c3cnn(-c4cccc(C(F)F)c4)c3n2)C1` [II-32, 1-[3-(difluoromethyl)phenyl]-N-[1-(ethylsulfonyl)azetidin-3-yl]-4-[3-(morpholin-4-yl)azetidin-1-yl]-1H-pyrazolo[3,4-d]pyrimidin-6-amine] had an IC50 at human IRAK4 of 56.7 nM. Still for that read-out and setting: the result for `O[C@@H]1CCN(c2nc(N[C@H]3C[C@H](O)C3)nc3c2cnn3-c2cccc(C(F)F)c2)C1` [II-33, (3R)-1-(1-[3-(difluoromethyl)phenyl]-6-{[(1r,3R)-3-hydroxycyclobutyl]amino}-1H-pyrazolo[3,4-d]pyrimidin-4-yl)pyrrolidin-3-ol] reads 16.5 nM; that for `CC(C)(O)CC1CN(c2nc(N[C@H]3C[C@@]4(CCN4)C3)nc3c2cnn3-c2cccc(C(F)F)c2)C1` [II-36, 1-(1-{6-[(4r,6s)-1-azaspiro[3.3]heptan-6-ylamino]-1-[3-(difluoromethyl)phenyl]-1H-pyrazolo[3,4-d]pyrimidin-4-yl}azetidin-3-yl)-2-methylpropan-2-ol], 2.76 nM.

At human IRAK4, `CC(C)(O)C1CCN(c2nc(N[C@@H]3CNC(=O)C3)nc3c2cnn3-c2cccc(OC(F)(F)F)c2)CC1` [III-1, (4S)-4-({4-[4-(2-hydroxypropan-2-yl)piperidin-1-yl]-1-[3-(trifluoromethoxy)phenyl]-1H-pyrazolo[3,4-d]pyrimidin-6-yl}amino)pyrrolidin-2-one] registered an IC50 of 19.1 nM. Still for that read-out and setting: the result for `CS(=O)(=O)[C@H]1C[C@H](Nc2nc(N3C[C@H](O)[C@@H](F)C3)c3cnn(-c4cccc(OC(F)F)c4)c3n2)C1` [IV-5, (3S,4S)-1-(1-[3-(difluoromethoxy)phenyl]-6-{[trans-3-(methylsulfonyl)cyclobutyl]amino}-1H-pyrazolo[3,4-d]pyrimidin-4-yl)-4-fluoropyrrolidin-3-ol] reads 11.2 nM. Consider `CS(=O)(=O)N1CC(Nc2nc(N3C[C@H](O)[C@@H](F)C3)c3cnn(-c4cccc(OC(F)F)c4)c3n2)C1` [IV-6, (3S,4S)-1-(1-[3-(difluoromethoxy)phenyl]-6-{[1-(methylsulfonyl)azetidin-3-yl]amino}-1H-pyrazolo[3,4-d]pyrimidin-4-yl)-4-fluoropyrrolidin-3-ol], for which the IC50 on human IRAK4 came to 193 nM.

Molecule `O=S1(=O)CCC(Nc2nc(N3C[C@H](O)[C@@H](F)C3)c3cnn(-c4cccc(OC(F)F)c4)c3n2)CC1` [IV-7, (3S,4S)-1-{1-[3-(difluoromethoxy)phenyl]-6-[(1,1-dioxidotetrahydro-2H-thiopyran-4-yl)amino]-1H-pyrazolo[3,4-d]pyrimidin-4-yl}-4-fluoropyrrolidin-3-ol] returned an IC50 on human IRAK4 of 46.4 nM. Molecule `CN1CC[C@H](Nc2nc(N3CCC(C(C)(C)O)CC3)c3cnn(-c4cccc(C(C)(C)O)c4)c3n2)C1` [VI-1, 2-[1-(1-[3-(2-hydroxypropan-2-yl)phenyl]-6-{[(3S)-1-methylpyrrolidin-3-yl]amino}-1H-pyrazolo[3,4-d]pyrimidin-4-yl)piperidin-4-yl]propan-2-ol] yielded an IC50 against human IRAK4 of 77.3 nM.

Values taken from patent EP3800188A1, “SUBSTITUTED PYRAZOLOPYRIMIDINES AS IRAK4 INHIBITORS” (Bayer AG, priority 2019, dated 2021).
